Results published in ChEMBL document CHEMBL3045835, “Comparative study of conventional and microwave-assisted synthesis of some Schiff bases and their potential as antimicrobial agents” (2012).
Values after ≈ are worked out from the molar mass of the structure shown.

Experiments:
Format in all cases: functional
Bacillus subtilis [1] = assay: Antibacterial activity against Bacillus subtilis MTCC 441 at 100 ug/ml after 18 hr by cup plate method; details: MTCC 441, 18 h, read-out: DIZ
Penicillium chrysogenum [2] = assay: Antifungal activity against Penicillium chrysogenum MTCC 161 at 500 ug/ml after 18 hr by cup-plate method; details: MTCC 161, 18 h, read-out: DIZ
Penicillium chrysogenum [3] = assay: Antifungal activity against Penicillium chrysogenum MTCC 161 at 1000 ug/ml after 18 hr by cup-plate method; details: MTCC 161, 18 h, read-out: DIZ
Bacillus pumilus [4] = assay: Antibacterial activity against Bacillus pumilus MTCC 1456 at 1500 ug/ml after 18 hr by cup-plate method; details: MTCC 1456, 18 h, read-out: DIZ
Bacillus pumilus [5] = assay: Antibacterial activity against Bacillus pumilus MTCC 1456 at 1000 ug/ml after 18 hr by cup-plate method; details: MTCC 1456, 18 h, read-out: DIZ
Aspergillus niger [6] = assay: Antifungal activity against Aspergillus niger MTCC 2546 at 100 ug/ml after 18 hr by cup-plate method; details: MTCC 2546, 18 h, read-out: DIZ
Bacillus subtilis [7] = assay: Antibacterial activity against Bacillus subtilis MTCC 441 after 24 hr by broth dilution method; details: MTCC 441, 24 h
Escherichia coli [8] = assay: Antibacterial activity against Escherichia coli MTCC 1573 at 1500 ug/ml after 18 hr by cup-plate method; details: MTCC 1573, 18 h, read-out: DIZ
Pseudomonas fluorescens [9] = assay: Antibacterial activity against Pseudomonas fluorescens MTCC 2421 at 200 ug/ml after 18 hr by cup-plate method; details: MTCC 2421, 18 h, read-out: DIZ
Micrococcus luteus [10] = assay: Antibacterial activity against Micrococcus luteus MTCC 1538 at 1500 ug/ml after 18 hr by cup-plate method; details: MTCC 1538, 18 h, read-out: DIZ
Escherichia coli [11] = assay: Antibacterial activity against Escherichia coli MTCC 1573 after 24 hr by broth dilution method; details: MTCC 1573, 24 h
Pseudomonas fluorescens [12] = assay: Antibacterial activity against Pseudomonas fluorescens MTCC 2421 at 100 ug/ml after 18 hr by cup-plate method; details: MTCC 2421, 18 h, read-out: DIZ
Aspergillus niger [13] = assay: Antifungal activity against Aspergillus niger MTCC 2546 at 500 ug/ml after 18 hr by cup-plate method; details: MTCC 2546, 18 h, read-out: DIZ
Micrococcus luteus [14] = assay: Antibacterial activity against Micrococcus luteus MTCC 1538 at 100 ug/ml after 18 hr by cup-plate method; details: MTCC 1538, 18 h, read-out: DIZ
Pseudomonas fluorescens [15] = assay: Antibacterial activity against Pseudomonas fluorescens MTCC 2421 at 1000 ug/ml after 18 hr by cup-plate method; details: MTCC 2421, 18 h, read-out: DIZ
Penicillium chrysogenum [16] = assay: Antifungal activity against Penicillium chrysogenum MTCC 161 at 200 ug/ml after 18 hr by cup-plate method; details: MTCC 161, 18 h, read-out: DIZ
Pseudomonas aeruginosa [17] = assay: Antibacterial activity against Pseudomonas aeruginosa MTCC 424 at 100 ug/ml after 18 hr by cup-plate method; details: MTCC 424, 18 h, read-out: DIZ
Pseudomonas aeruginosa [18] = assay: Antibacterial activity against Pseudomonas aeruginosa MTCC 424 after 24 hr by broth dilution method; details: MTCC 424, 24 h
Micrococcus luteus [19] = assay: Antibacterial activity against Micrococcus luteus MTCC 1538 after 24 hr by broth dilution method; details: MTCC 1538, 24 h
Bacillus subtilis [20] = assay: Antibacterial activity against Bacillus subtilis MTCC 441 at 1500 ug/ml after 18 hr by cup plate method; details: MTCC 441, 18 h, read-out: DIZ
Escherichia coli [21] = assay: Antibacterial activity against Escherichia coli MTCC 1573 at 1000 ug/ml after 18 hr by cup-plate method; details: MTCC 1573, 18 h, read-out: DIZ
Micrococcus luteus [22] = assay: Antibacterial activity against Micrococcus luteus MTCC 1538 at 500 ug/ml after 18 hr by cup-plate method; details: MTCC 1538, 18 h, read-out: DIZ
Penicillium chrysogenum [23] = assay: Antifungal activity against Penicillium chrysogenum MTCC 161 at 1500 ug/ml after 18 hr by cup-plate method; details: MTCC 161, 18 h, read-out: DIZ
Aspergillus niger [24] = assay: Antifungal activity against Aspergillus niger MTCC 2546 at 1500 ug/ml after 18 hr by cup-plate method; details: MTCC 2546, 18 h, read-out: DIZ
Pseudomonas aeruginosa [25] = assay: Antibacterial activity against Pseudomonas aeruginosa MTCC 424 at 1500 ug/ml after 18 hr by cup-plate method; details: MTCC 424, 18 h, read-out: DIZ
Bacillus pumilus [26] = assay: Antibacterial activity against Bacillus pumilus MTCC 1456 after 24 hr by broth dilution method; details: MTCC 1456, 24 h
Bacillus pumilus [27] = assay: Antibacterial activity against Bacillus pumilus MTCC 1456 at 200 ug/ml after 18 hr by cup-plate method; details: MTCC 1456, 18 h, read-out: DIZ
Staphylococcus aureus [28] = assay: Antibacterial activity against Staphylococcus aureus MTCC 1430 at 1500 ug/ml after 18 hr by cup-plate method; details: MTCC 1430, 18 h, read-out: DIZ
Staphylococcus aureus [29] = assay: Antibacterial activity against Staphylococcus aureus MTCC 1430 at 200 ug/ml after 18 hr by cup-plate method; details: MTCC 1430, 18 h, read-out: DIZ
Aspergillus niger [30] = assay: Antifungal activity against Aspergillus niger MTCC 2546 after 24 hr by broth dilution method; details: MTCC 2546, 24 h
Penicillium chrysogenum [31] = assay: Antifungal activity against Penicillium chrysogenum MTCC 161 at 100 ug/ml after 18 hr by cup-plate method; details: MTCC 161, 18 h, read-out: DIZ
Staphylococcus aureus [32] = assay: Antibacterial activity against Staphylococcus aureus MTCC 1430 at 1000 ug/ml after 18 hr by cup-plate method; details: MTCC 1430, 18 h, read-out: DIZ
Bacillus pumilus [33] = assay: Antibacterial activity against Bacillus pumilus MTCC 1456 at 500 ug/ml after 18 hr by cup-plate method; details: MTCC 1456, 18 h, read-out: DIZ
Bacillus subtilis [34] = assay: Antibacterial activity against Bacillus subtilis MTCC 441 at 1000 ug/ml after 18 hr by cup plate method; details: MTCC 441, 18 h, read-out: DIZ
Pseudomonas aeruginosa [35] = assay: Antibacterial activity against Pseudomonas aeruginosa MTCC 424 at 500 ug/ml after 18 hr by cup-plate method; details: MTCC 424, 18 h, read-out: DIZ
Pseudomonas fluorescens [36] = assay: Antibacterial activity against Pseudomonas fluorescens MTCC 2421 at 1500 ug/ml after 18 hr by cup-plate method; details: MTCC 2421, 18 h, read-out: DIZ
Micrococcus luteus [37] = assay: Antibacterial activity against Micrococcus luteus MTCC 1538 at 200 ug/ml after 18 hr by cup-plate method; details: MTCC 1538, 18 h, read-out: DIZ
Escherichia coli [38] = assay: Antibacterial activity against Escherichia coli MTCC 1573 at 100 ug/ml after 18 hr by cup-plate method; details: MTCC 1573, 18 h, read-out: DIZ
Pseudomonas aeruginosa [39] = assay: Antibacterial activity against Pseudomonas aeruginosa MTCC 424 at 1000 ug/ml after 18 hr by cup-plate method; details: MTCC 424, 18 h, read-out: DIZ
Staphylococcus aureus [40] = assay: Antibacterial activity against Staphylococcus aureus MTCC 1430 after 24 hr by broth dilution method; details: MTCC 1430, 24 h
Aspergillus niger [41] = assay: Antifungal activity against Aspergillus niger MTCC 2546 at 1000 ug/ml after 18 hr by cup-plate method; details: MTCC 2546, 18 h, read-out: DIZ
Escherichia coli [42] = assay: Antibacterial activity against Escherichia coli MTCC 1573 at 200 ug/ml after 18 hr by cup-plate method; details: MTCC 1573, 18 h, read-out: DIZ
Bacillus subtilis [43] = assay: Antibacterial activity against Bacillus subtilis MTCC 441 at 200 ug/ml after 18 hr by cup plate method; details: MTCC 441, 18 h, read-out: DIZ
Bacillus subtilis [44] = assay: Antibacterial activity against Bacillus subtilis MTCC 441 at 500 ug/ml after 18 hr by cup plate method; details: MTCC 441, 18 h, read-out: DIZ
Bacillus pumilus [45] = assay: Antibacterial activity against Bacillus pumilus MTCC 1456 at 100 ug/ml after 18 hr by cup-plate method; details: MTCC 1456, 18 h, read-out: DIZ
Aspergillus niger [46] = assay: Antifungal activity against Aspergillus niger MTCC 2546 at 200 ug/ml after 18 hr by cup-plate method; details: MTCC 2546, 18 h, read-out: DIZ
Micrococcus luteus [47] = assay: Antibacterial activity against Micrococcus luteus MTCC 1538 at 1000 ug/ml after 18 hr by cup-plate method; details: MTCC 1538, 18 h, read-out: DIZ
Pseudomonas fluorescens [48] = assay: Antibacterial activity against Pseudomonas fluorescens MTCC 2421 after 24 hr by broth dilution method; details: MTCC 2421, 24 h
Pseudomonas aeruginosa [49] = assay: Antibacterial activity against Pseudomonas aeruginosa MTCC 424 at 200 ug/ml after 18 hr by cup-plate method; details: MTCC 424, 18 h, read-out: DIZ
Penicillium chrysogenum [50] = assay: Antifungal activity against Penicillium chrysogenum MTCC 161 after 24 hr by broth dilution method; details: MTCC 161, 24 h
Escherichia coli [51] = assay: Antibacterial activity against Escherichia coli MTCC 1573 at 500 ug/ml after 18 hr by cup-plate method; details: MTCC 1573, 18 h, read-out: DIZ
Staphylococcus aureus [52] = assay: Antibacterial activity against Staphylococcus aureus MTCC 1430 at 500 ug/ml after 18 hr by cup-plate method; details: MTCC 1430, 18 h, read-out: DIZ
Pseudomonas fluorescens [53] = assay: Antibacterial activity against Pseudomonas fluorescens MTCC 2421 at 500 ug/ml after 18 hr by cup-plate method; details: MTCC 2421, 18 h, read-out: DIZ

C(=N\c1nc[nH]n1)/c1ccco1
zone of inhibition at 100 µg/mL (Bacillus subtilis [1]): 11 mm
zone of inhibition at 500 µg/mL (Penicillium chrysogenum [2]): 17 mm
zone of inhibition at 1000 µg/mL (Penicillium chrysogenum [3]): 18 mm
zone of inhibition at 1500 µg/mL (Bacillus pumilus [4]): 20 mm
zone of inhibition at 1000 µg/mL (Bacillus pumilus [5]): 17 mm
zone of inhibition at 100 µg/mL (Aspergillus niger [6]): 11 mm
MIC (Bacillus subtilis [7]): 300 µg/mL (≈ 1850 µM)
zone of inhibition at 1500 µg/mL (Escherichia coli [8]): 25 mm
zone of inhibition at 200 µg/mL (Pseudomonas fluorescens [9]): 16 mm
zone of inhibition at 1500 µg/mL (Micrococcus luteus [10]): 22 mm
MIC (Escherichia coli [11]): 400 µg/mL (≈ 2470 µM)
zone of inhibition at 100 µg/mL (Pseudomonas fluorescens [12]): 13 mm
zone of inhibition at 500 µg/mL (Aspergillus niger [13]): 18 mm
zone of inhibition at 100 µg/mL (Micrococcus luteus [14]): 12 mm
zone of inhibition at 1000 µg/mL (Pseudomonas fluorescens [15]): 20 mm
zone of inhibition at 200 µg/mL (Penicillium chrysogenum [16]): 15 mm
zone of inhibition at 100 µg/mL (Pseudomonas aeruginosa [17]): 10 mm
MIC (Pseudomonas aeruginosa [18]): 500 µg/mL (≈ 3080 µM)
MIC (Micrococcus luteus [19]): 300 µg/mL (≈ 1850 µM)
zone of inhibition at 1500 µg/mL (Bacillus subtilis [20]): 22 mm
zone of inhibition at 1000 µg/mL (Escherichia coli [21]): 15 mm
zone of inhibition at 500 µg/mL (Micrococcus luteus [22]): 18 mm
zone of inhibition at 1500 µg/mL (Penicillium chrysogenum [23]): 21 mm
zone of inhibition at 1500 µg/mL (Aspergillus niger [24]): 23 mm
zone of inhibition at 1500 µg/mL (Pseudomonas aeruginosa [25]): 21 mm
MIC (Bacillus pumilus [26]): 300 µg/mL (≈ 1850 µM)
zone of inhibition at 200 µg/mL (Bacillus pumilus [27]): 15 mm
zone of inhibition at 1500 µg/mL (Staphylococcus aureus [28]): 18 mm
zone of inhibition at 200 µg/mL (Staphylococcus aureus [29]): 12 mm
MIC (Aspergillus niger [30]): 500 µg/mL (≈ 3080 µM)
zone of inhibition at 100 µg/mL (Penicillium chrysogenum [31]): 11 mm
zone of inhibition at 1000 µg/mL (Staphylococcus aureus [32]): 15 mm
zone of inhibition at 500 µg/mL (Bacillus pumilus [33]): 16 mm
zone of inhibition at 1000 µg/mL (Bacillus subtilis [34]): 17 mm
zone of inhibition at 500 µg/mL (Pseudomonas aeruginosa [35]): 13 mm
zone of inhibition at 1500 µg/mL (Pseudomonas fluorescens [36]): 23 mm
zone of inhibition at 200 µg/mL (Micrococcus luteus [37]): 16 mm
zone of inhibition at 100 µg/mL (Escherichia coli [38]): 10 mm
zone of inhibition at 1000 µg/mL (Pseudomonas aeruginosa [39]): 15 mm
MIC (Staphylococcus aureus [40]): 600 µg/mL (≈ 3700 µM)
zone of inhibition at 1000 µg/mL (Aspergillus niger [41]): 19 mm
zone of inhibition at 200 µg/mL (Escherichia coli [42]): 13 mm
zone of inhibition at 200 µg/mL (Bacillus subtilis [43]): 15 mm
zone of inhibition at 500 µg/mL (Bacillus subtilis [44]): 16 mm
zone of inhibition at 100 µg/mL (Bacillus pumilus [45]): 11 mm
zone of inhibition at 200 µg/mL (Aspergillus niger [46]): 16 mm
zone of inhibition at 1000 µg/mL (Micrococcus luteus [47]): 21 mm
MIC (Pseudomonas fluorescens [48]): 300 µg/mL (≈ 1850 µM)
zone of inhibition at 200 µg/mL (Pseudomonas aeruginosa [49]): 11 mm
MIC (Penicillium chrysogenum [50]): 500 µg/mL (≈ 3080 µM)
zone of inhibition at 500 µg/mL (Escherichia coli [51]): 14 mm
zone of inhibition at 500 µg/mL (Staphylococcus aureus [52]): 14 mm
zone of inhibition at 500 µg/mL (Pseudomonas fluorescens [53]): 18 mm
